Among the data in PubChem BioAssay AID2060495 (Molecular Pharmacology Branch, DTP, NCI, 2025) are viability, T/C and IC50 values, retold here.

Several values for one entry are separate records, joined by “and”; a condition that tells them apart may be missing. Equal values may be shown once.

One may read the viability, T/C as the ratio of treated to control. A word on the IC50: it is the point on the concentration scale where inhibition reaches its midpoint.

In this assay the test system is 521955-158-R2-J5-PDC complex spheroid viability. Briefly: Anticancer human tumor 521955-158-R2-J5-PDC patient-derived pancreatic carcinoma cell line growth inhibition [GQUAD]. The note with it: for viability, T/C: stronger effect = lower value. An excerpt:
DNA G-quadruplex Stabilizer Agents in Combinations in Complex Spheroids
A high-throughput screen of multi-cell type tumor spheroids was designed to identify active combinations of DNA G-quadruplex stabilizer agents and targeted small molecules. Complex spheroids include a stromal component modeled by human endothelial cells (HUVEC) and fibroblasts modeled by human mesenchymal stem cells (MSCs). The concentration ranges selected for each drug and investigational agent were based upon clinically achievable concentrations if the clinical Cmax of the agent was known.
Compounds. The drugs and investigational agents: pidnarulex (CX-5461; NSC782164), APTO-253 (NSC789042), BRACO-19 (NSC847499), peposertib (NSC802822), ceralasertib (NSC780249), elimusertib (NSC800525), camonsertib (NSC841442), AZD-1390 (NSC803789), olaparib (NSC753686), talazoparib (NSC767125), ART-558 (NSC835418), sotorasib (NSC818433), MRTX-1133 (NSC836407), SN-38 (NSC673596), topotecan (NSC609699), etoposide (NSC141540), doxorubicin (NSC123127), gemcitabine (NSC613327), 5-fluorouracil (NSC19893), paclitaxel (NSC125973), vemurafenib (NSC761431), panobinostat (NSC761190), R-306465 (JNJ-16241199; NSC773264), adavosertib (NSC754352), TP-3654 (NSC805149), carboplatin (NSC241240), KSQ-4279 (NSC840948), and staurosporine (NSC755774) were obtained from the National Cancer Institute (NCI) Developmental Therapeutics Program Chemical Repository (34). The FDA-approved anticancer drug set is available from the NCI Developmental Therapeutics Program. […] The stock solutions were prepared in dimethyl sulfoxide (DMSO, Sigma-Aldrich, St. Louis, MO, cat. D2650) at 800-fold the tested concentration and stored at -70 degrees C prior to their use. All drugs and investigational agents were tested over a range starting from a high concentration at or near the clinical Cmax and decreasing in half-log increments. If the clinical Cmax for an agent had not been determined, the highest concentration tested was 10 microM.
2.3 Cell Culture. All cells were maintained in an incubator at 37 degrees C and 5% CO2 with 95% humidity. The PDC lines were cultured according to standard operating procedures established by the NCI PDMR. All PDCs were thawed and cultured in Matrigel-coated flasks prepared with a working solution of 1X Ham's F-12 nutrient mix, without supplementation (Invitrogen, cat. 11765054), 100 U/mL penicillin-streptomycin (Invitrogen, cat. 15140122), and 2.5% Matrigel (Corning Inc., cat. 354248) for the first three passages. The 857933-349-R-J2-PDC line was cultured in 6C/Colon 1B media, which includes advanced DMEM/F-12 (Thermo Fisher Scientific, cat. 12634028), 10 mM HEPES (Thermo Fisher Scientific, cat. 15630080), 1X GlutaMAX supplement (Thermo Fisher Scientific, cat. 35050061), 0.1 mg/mL primocin (InvivoGen, cat. ant-pm-2), 10% defined fetal bovine serum, heat inactivated (HyClone Laboratories Inc., cat. SH30070.03HI), 50% L-WRN conditioned media (ATCC, cat. CRL-3276), 1.25 mM N-Acetyl-L-cysteine (Sigma-Aldrich, cat. A9165), 10 mM nicotinamide (Sigma-Aldrich, cat. N0636), 1X B-27 supplement (Thermo Fisher Scientific, cat. 17504044), 1X N-2 supplement (Thermo Fisher Scientific, cat. 17502048), 10 microM Y-27632 dihydrochloride (Tocris Bioscience, cat. 1254), and 50 ng/mL human EGF recombinant protein (Thermo Fisher Scientific, cat. PHG0311). The 485176-168-R4-J1-PDC line was cultured in Panc media, which includes all 6C/Colon 1B media components plus 100 ng/mL human FGF-10 (Thermo Fisher Scientific, cat. 100-26), 500 nM SB-431542 (Selleckchem, cat. S1067), and gastrin (Tocris, cat. 3006).
[…]
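Also: spheroids exposed to agents for one week before reading.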

`Cc1[nH]c2ccc(F)cc2c1-c1nc2c3cccnc3c3ncccc3c2[nH]1`: the viability, T/C runs as follows: (compound 0.0316 µM) 106% [middle of 12 runs]; (compound 0.1 µM) 100% [middle of 12 runs]; (compound 1 µM) 102% [middle of 12 runs]; (compound 10 µM) 89.7% [middle of 12 runs]. The IC50 was more than 10000 nM (compound alone, run of 04/16/2024) and more than 10000 nM (compound alone, run of 04/22/2024).
Turning to `COc1ncnc(C2CC2)c1-c1ncc2cnn(Cc3ccc(-c4nc(C(F)(F)F)cn4C(C)C)cc3)c2n1`, the viability, T/C is, setting by setting: (compound 0.0316 µM) 116% (2×) and 103%; (compound 0.1 µM) 88.7% and 102% and 106%; (compound 0.316 µM) 105% and 113% and 124%; (compound 1 µM) 85% and 107% and 113%; (compound 3.16 µM) 116% and 114% and 132%; (compound 10 µM) 124% and 108% and 134%. Under “curve of compound”, the IC50 was more than 10000 nM.
For the compound `COc1cccc2c1C(=O)c1c(O)c3c(c(O)c1C2=O)CC(O)(C(=O)CO)CC3OC1CC(N)C(O)C(C)O1` (configuration not stated), the viability, T/C (compound 0.0316 µM) was 97.9% and 93.8% and 88.4%; the viability, T/C (compound 0.1 µM) is 57.4% and 74.5% and 45%; the viability, T/C (compound 0.316 µM) is 34.3% and 31.6% and 30.2%; the viability, T/C (compound 1 µM) is 13.4% and 43% and 12.5%; the viability, T/C (compound 3.16 µM) was 4.07% and 4.69% and 3.22%; the viability, T/C (compound 10 µM) is 1.01% and 2.64% and 0.42%. Also, for the setting “curve of compound”, the IC50 is 145 nM and 254 nM and 96.7 nM.
Take `C#Cc1c(F)ccc2cc(O)cc(-c3ncc4c(N5CC6CCC(C5)N6)nc(OCC56CCCN5CC(F)C6)nc4c3F)c12` (configuration not stated) + Cc1cnc(CNC(=O)c2c(=O)c3ccc(N4CCCN(C)CC4)nc3n3c2sc2ccccc23)cn1: the IC50 was less than 31.6 nM (curve of first compound, second compound 0.0316 µM); less than 31.6 nM (curve of first compound, second compound 0.1 µM); less than 31.6 nM (curve of first compound, second compound 0.316 µM); less than 31.6 nM (curve of first compound, second compound 1 µM); less than 31.6 nM (curve of first compound, second compound 3.16 µM); less than 31.6 nM (curve of first compound, second compound 10 µM). Besides, the viability, T/C (second compound 0.0316 µM, first compound 0.0316 µM) was 35.4%; the viability, T/C (second compound 0.0316 µM, first compound 0.1 µM) was 31.3%; the viability, T/C (second compound 0.0316 µM, first compound 0.316 µM) is 26.2%; the viability, T/C (second compound 0.0316 µM, first compound 1 µM) was 19.1%; the viability, T/C (second compound 0.0316 µM, first compound 3.16 µM) was 17.9%; the viability, T/C (second compound 0.0316 µM, first compound 10 µM) is 13.9%. The viability, T/C is 24.5% (second compound 0.1 µM, first compound 0.0316 µM); 26.6% (second compound 0.1 µM, first compound 0.1 µM); 21.4% (second compound 0.1 µM, first compound 0.316 µM); 18.3% (second compound 0.1 µM, first compound 1 µM); 17.2% (second compound 0.1 µM, first compound 3.16 µM); 13.3% (second compound 0.1 µM, first compound 10 µM). Moreover, the viability, T/C reads like this: (second compound 0.316 µM, first compound 0.0316 µM) 19.3%; (second compound 0.316 µM, first compound 0.1 µM) 20%; (second compound 0.316 µM, first compound 0.316 µM) 18.3%; (second compound 0.316 µM, first compound 1 µM) 16.1%; (second compound 0.316 µM, first compound 3.16 µM) 14.1%; (second compound 0.316 µM, first compound 10 µM) 11.5%. Also, the viability, T/C is 11.3% (second compound 1 µM, first compound 0.0316 µM); 12.6% (second compound 1 µM, first compound 0.1 µM); 10.9% (second compound 1 µM, first compound 0.316 µM); 8.41% (second compound 1 µM, first compound 1 µM); 9.79% (second compound 1 µM, first compound 3.16 µM); 5.56% (second compound 1 µM, first compound 10 µM). Further, the viability, T/C is, setting by setting: (second compound 3.16 µM, first compound 0.0316 µM) 2.92%; (second compound 3.16 µM, first compound 0.1 µM) 0.7%; (second compound 3.16 µM, first compound 0.316 µM) 2.89%; (second compound 3.16 µM, first compound 1 µM) 0.31%; (second compound 3.16 µM, first compound 3.16 µM) 0.11%; (second compound 3.16 µM, first compound 10 µM) 0.08%. Also, the viability, T/C by setting is: (second compound 10 µM, first compound 0.0316 µM) 0.08%; (second compound 10 µM, first compound 0.1 µM) 0.7%; (second compound 10 µM, first compound 0.316 µM) 0.19%; (second compound 10 µM, first compound 1 µM) 0.15%; (second compound 10 µM, first compound 3.16 µM) 0.18%; (second compound 10 µM, first compound 10 µM) 0.16%.
